The target of this test is T1, 5-HT2B Receptors (Homo sapiens, UniProt P41595).
T1 construct: expressed in transfected cells
The test can be described thus: Antagonist activity assay (FLIPR, CHO-K1/5-HT2B stable cell line). The note with it: for inhibition at 1 µM: 1 μM compound, CHO-K1/5-HT2B cells stimulated with 12 nM (EC80) 5-HT; for IC50: CHO-K1/5-HT2B cells, antagonist mode vs EC80 5-HT. The test is classed as cell-based. How it is done:
Briefly, CHO-K1 cells expressing 5-HT2B were seeded in a 384-well black-wall, clear-bottom plate at a density of 20,000 cells per well in 20 μL of growth medium (10% dialyzed FBS+90% F12), 18 hours prior to the day of experiment and maintained at 37° C./5% CO2. 20 μL of dye-loading solution and 10 μL of tested compound solution (at concentrations five times to the final assay concentrations) were added into the well. Then the plate was placed into a 37° C. incubator for 60 minutes, followed by 15 minutes at room temperature. At last, 12.5 μL of control agonist (at concentrations five times to the EC80 concentrations) was added. The control agonist was added to reading plate at 20 s and the fluorescence signal was monitored for an additional 100 s (21 s to 120 s). In screening, cells stimulated with assay buffer (HBSS-HEPES) containing 0.1% DMSO were chosen as background; cell stimulated with 12 nM (EC80 of the cell line) of 5-HT were chosen as the agonist control; cell treated with SB206553 were chosen as positive control of the screening.
Data acquisition and analyses are performed using ScreenWorks (version 3.1) program. The average fluorescent intensity value during 1 s to 20 s calculated as the baseline reading. The relative fluorescent units (ΔRFU) intensity values were calculated with the maximal fluorescent units (21 s to 120 s) subtracting the average value of baseline reading. The % inhibition of the test article is calculated from the following equation: % inhibition=[1−(ΔRFUCompound−ΔRFUBackground)/(ΔRFUAgonist control−ΔRFUBackground)]*100

This note sets out measurements from patent US9751845B2, “5-HT2B antagonists” (National Institute of Biological Sciences, Beijing, priority 2014, dated 2017).

The inhibition is the drop in the measured response relative to a control, in per cent. As a reminder, the IC50 is the concentration that gives 50% inhibition. A lower IC50 goes with greater potency.

T1 sequence (P41595 whole entry): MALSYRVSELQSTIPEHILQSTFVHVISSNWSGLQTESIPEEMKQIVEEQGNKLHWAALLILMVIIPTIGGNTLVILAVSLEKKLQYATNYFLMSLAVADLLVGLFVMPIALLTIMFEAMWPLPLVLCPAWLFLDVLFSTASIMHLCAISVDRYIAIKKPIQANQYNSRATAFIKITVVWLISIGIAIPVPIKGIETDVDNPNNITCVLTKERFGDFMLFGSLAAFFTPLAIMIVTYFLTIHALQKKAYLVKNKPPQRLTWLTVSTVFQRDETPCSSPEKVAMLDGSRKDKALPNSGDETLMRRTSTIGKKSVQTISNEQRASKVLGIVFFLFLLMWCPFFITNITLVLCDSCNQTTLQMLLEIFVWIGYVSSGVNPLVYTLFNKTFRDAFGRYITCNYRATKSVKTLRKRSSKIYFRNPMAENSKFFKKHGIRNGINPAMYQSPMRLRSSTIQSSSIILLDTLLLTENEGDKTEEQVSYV

Consider `CC1(C)N=C(N)N=C(Nc2ccccc2)N1` [1-a], for which the inhibition at 1 µM is under 50%.

As to `COc1ccccc1NC1=NC(N)=NC(C)(C)N1` [1-b], the inhibition at 1 µM was under 50%.

Consider `CC1(C)N=C(N)N=C(Nc2cccc(Br)c2)N1` [1-c], for which the inhibition at 1 µM was 75.9 ± 11.5% and the half-maximal inhibitory concentration (IC50) is 328 nM.

For the molecule `CC1(C)N=C(N)N=C(Nc2ccc(Cl)cc2)N1` [1-d], the inhibition at 1 µM is 93.1 ± 4.2% and inhibition was half-maximal at 1640 nM (IC50).

Regarding `CC1(C)N=C(N)N=C(Nc2ccc(Br)cc2)N1` [1-e], the inhibition at 1 µM is under 50%.

As for `CC1(C)N=C(N)N=C(Nc2ccc(I)cc2)N1` [1-f], the inhibition at 1 µM was under 50% and the IC50 was determined as 2510 nM.

`CCOc1ccc(NC2=NC(N)=NC(C)(C)N2)cc1` [1-g]: the inhibition at 1 µM was under 50%.

With `COc1ccccc1NC1=NC(N)=NC2(CCCC2)N1` [1-h], the inhibition at 1 µM is under 50%.

Turning to `Cc1cccc(NC2=NC(N)=NC3(CCCC3)N2)c1` [1-i], the inhibition at 1 µM is under 50%.

On to `COc1cccc(NC2=NC(N)=NC3(CCCC3)N2)c1` [2-a], for which the inhibition at 1 µM is 63.4 ± 15.1% and the midpoint of inhibition, the IC50, lay at 1060 nM.

For `NC1=NC2(CCCC2)NC(Nc2ccc(F)cc2)=N1` [2-b], the inhibition at 1 µM was under 50%.

Regarding `Cc1ccc(C)c(NC2=NC(N)=NC3(CCCC3)N2)c1` [2-c], the inhibition at 1 µM was under 50%.

Turning to `Cc1cccc(C)c1NC1=NC(N)=NC2(CCCC2)N1` [2-d], the inhibition at 1 µM is under 50%.

Take `NC1=NC2(CCCCC2)NC(Nc2ccccc2)=N1` [3-a]: the inhibition at 1 µM was under 50%.

As to `Cc1ccccc1NC1=NC(N)=NC2(CCCCC2)N1` [3-b], the inhibition at 1 µM is under 50%.

Take `COc1ccccc1NC1=NC(N)=NC2(CCCCC2)N1` [3-c]: the inhibition at 1 µM was under 50%.

For `NC1=NC2(CCCCC2)NC(Nc2cccc(F)c2)=N1` [3-d], the inhibition at 1 µM came to 90.9 ± 2.9%.

For the molecule `NC1=NC2(CCCCC2)NC(Nc2cccc(Cl)c2)=N1` [3-e1], the inhibition at 1 µM is about 95.5%.

On to `NC1=NC2(CCCCC2)NC(Nc2cccc(Br)c2)=N1` [3-e2], for which the inhibition at 1 µM was determined as 97.4 ± 2.2% and half-maximal inhibition (IC50) was put at 33.4 nM.

For `NC1=NC2(CCCCC2)NC(Nc2cccc(I)c2)=N1` [3-f], the inhibition at 1 µM is 102 ± 4.5%.

As to `COc1cccc(NC2=NC(N)=NC3(CCCCC3)N2)c1` [3-g], the inhibition at 1 µM was found to be 84.6 ± 1.2% and the IC50 amounted to 280 nM.

On to `NC1=NC2(CCCCC2)NC(Nc2cccc(C(=O)O)c2)=N1` [3-h], for which the inhibition at 1 µM was under 50%.

In the case of `CCOC(=O)c1cccc(NC2=NC(N)=NC3(CCCCC3)N2)c1` [3-i], the inhibition at 1 µM was determined as 107.2 ± 0.6% and the IC50 stood at 27.3 nM.

For the molecule `CCNC(=O)c1cccc(NC2=NC(N)=NC3(CCCCC3)N2)c1` [3-j, 3-(4-amino-1,3,5-triazaspiro[5.5]undeca-2,4-dien-2-ylamino)-N-ethylbenzamide], the inhibition at 1 µM was 95.5 ± 4.8% and the IC50 was 104 nM.

In the case of `CCCOC(=O)c1cccc(NC2=NC(N)=NC3(CCCCC3)N2)c1` [3-k], the inhibition at 1 µM turned out to be 110 ± 2.7% and the IC50 turned out to be 18.1 nM.

Regarding `CCN(CC)C(=O)c1cccc(NC2=NC(N)=NC3(CCCCC3)N2)c1` [3-l], the inhibition at 1 µM was under 50%.

As to `Cc1ccc(NC2=NC(N)=NC3(CCCCC3)N2)cc1` [3-m], the inhibition at 1 µM was determined as 50.2 ± 8% and the IC50 turned out to be 486 nM.

With `NC1=NC2(CCCCC2)NC(Nc2ccc(Cl)cc2)=N1` [3-n], the inhibition at 1 µM was 57.2 ± 5.4% and it took 531 nM to reach half-maximal inhibition (IC50).

As for `CN(C)c1ccc(NC2=NC(N)=NC3(CCCCC3)N2)cc1` [3-o], the inhibition at 1 µM was under 50%.

Turning to `CCOC(=O)c1ccc(NC2=NC(N)=NC3(CCCCC3)N2)cc1` [3-p], the inhibition at 1 µM amounted to 109 ± 4.2%.

In the case of `NC1=NC2(CCCCC2)NC(Nc2ccc(F)cc2F)=N1` [3-q], the inhibition at 1 µM is under 50%.

Take `NC1=NC2(CCCCC2)NC(Nc2ccc(F)c(F)c2)=N1` [3-r]: the inhibition at 1 µM was found to be 66.5 ± 2.1%.

For the molecule `Cc1ccc(NC2=NC(N)=NC3(CCCCC3)N2)cc1C` [3-s], the inhibition at 1 µM is 95.7 ± 1.9% and the IC50 was 177 nM.

On to `Cc1cc(C)cc(NC2=NC(N)=NC3(CCCCC3)N2)c1` [3-t], for which the inhibition at 1 µM was 69.1 ± 2.7% and half-maximal inhibition (IC50) was put at 476 nM.

On to `COc1ccc(OC)c(NC2=NC(N)=NC3(CCCCC3)N2)c1` [3-u], for which the inhibition at 1 µM turned out to be 81.1 ± 6.7% and half-maximal inhibition (IC50) was put at 622 nM.

`CCOC(=O)c1cc(NC2=NC(N)=NC3(CCCCC3)N2)ccc1C` [3-v]: the inhibition at 1 µM turned out to be 108 ± 1.5%.

Regarding `CCOC(=O)c1cc(NC2=NC(N)=NC3(CCCCC3)N2)cc(Br)c1C` [3-w], the inhibition at 1 µM was determined as 92.8 ± 3.1%.

Regarding `CCOC(=O)c1cccc(NC2=NC(NC)=NC3(CCCCC3)N2)c1` [3-x, ethyl 3-(4-(methylamino)-1,3,5-triazaspiro[5.5]undeca-2,4-dien-2-ylamino)benzoate], the inhibition at 1 µM worked out at 108% and half-maximal inhibition (IC50) was put at 49.4 nM.

Take `CCOC(=O)c1cccc(NC2=NC(N(C)C)=NC3(CCCCC3)N2)c1` [3-y]: the inhibition at 1 µM is 91.8 ± 0.4% and the IC50 was 284 nM.

Regarding `CCCC(=O)c1cccc(NC2=NC(N)=NC3(CCCCC3)N2)c1` [3-z], the inhibition at 1 µM was 106 ± 0.8% and the IC50 worked out at 35.8 nM.
